Measurements: patent US20220105157A1, “Compositions and Methods for Promoting Angiogenesis in the Eye” (The Regents of the University of California, priority 2019, published 2022)

Experiments:
[1] = tested on: human retinal microvascular endothelial (HRME) cells; assay: HRME endothelial cell proliferation assay (alamar blue); assay type: cell-based
Protocol: The bovine endothelial proliferation assays were performed essentially as previously described (63, 64). BCE (1×10^3 cells/well) or BRE (5×10^2 cells/well) cells were seeded in 96-well plates in the culture medium (DMEM-low glucose supplemented with 10% BCS, 2 mM glutamine and antibiotics) plus testing materials with a total volume of 200 μl per well. BAE cells were plated in 96-well plates at a density of 2×10^3 cells in the culture medium (DMEM-low glucose supplemented with 1% BCS and antibiotics) plus testing material with a total volume of 200 μl per well. HRME cells were seeded at a density of 1×10^3 cells/well in gelatin-coated 96-well plates in assay medium (DMEM-low glucose supplemented with 20% FBS and antibiotics) plus testing materials to make a total volume 200 μl per well. For assays involving antibodies or small-molecule inhibitors, inhibitors or vehicle controls were first added and then test materials were added one hour later. After 6 days (unless otherwise specified), cells were incubated with alamar blue for 4 h. Fluorescence was measured at 530 nm excitation wavelength and 590 nm emission wavelength. Each experiment was carried out in duplicate/triplicate and repeated at least three times.

[2] = tested on: retinal vasculature of mouse eyes; assay: Intravitreal injection of recombinant proteins in mouse eyes, retinal vessel density; assay type: in vivo; details: for retinal microvessel density (CD31): 6-8 week old mice, intravitreal
Protocol: Male C57BL/6J mice (6-8 week and P5) were anesthetized with ketamine/Xylazine cocktail. The indicated amounts of recombinant LIF (Sigma, CAT #SRP9001) in 1 μl of PBS and PBS vehicle control were injected intravitreally with a 33-gauge Hamilton syringe. Seven (for adult mice) or 3 (for neonatal mice) days after injection, animals were euthanized, eyes were then enucleated and fixed in 4% paraformaldehyde (PFA) for 15 min. Choroid-sclera complexes and retinas were separated and anti-CD31 immunofluorescence (IF) or lectin labeling was performed to evidence the vasculature by whole mount staining of both retina and choroidal tissues or flat-mounts of retina. For CD31 IF, rat anti-mouse antibody (BD Biosciences, CAT #550274) was diluted 1:100 and incubated overnight at 4° C. After 4-hour incubation with the Alexa Fluor-488-conjugated anti-rat antibody (Life Technologies, CAT #A11006), whole mounts were imaged via the 488 nm channel using Keyence Microscope BZ-X710 (Keyence Corporation, Osaka, Japan) or A1R Confocal STORM super-resolution system (Nikon). For lectin staining, Dylight-488-labeled lectin (Vector Laboratories, CAT #DL-1174) was diluted at 1:200 and images were obtained using A1R Confocal STORM super-resolution system (Nikon). For Quantification of vascular density in choroids and retina was carried out by Image J. Student's t test was used for statistical analysis. Each experiment was repeated three times with similar results each time, and each treatment group consists of 4 or 5 individual samples in every experiment. All animal experimental procedures were approved by the Institutional Animal Care and Use Committee (IACUC) of the University of California San Diego and conducted in accordance with the guidelines of the Animal Care Program (ACP).
Optical coherence tomography angiography (OCTA) imaging of the retina of adult mice was performed 7 days after LIF injection, using a 1300 nm optical coherence tomography (OCT) system developed by Dr. R. K. Wang's group at University of Washington Seattle, in agreement with previously described methodology (66). Briefly, the swept laser operated in single longitude mode with a 90 nm bandwidth centered at 1300 nm and 200 kHz A-line rate was used to scan mouse retina and to generate images of vasculature in a field of view of 1.5×1.5 mm^2. 2500 B-frames were captured at 500 cross-sections with five repeated B-frames at each cross-section. To quantify the retinal vascular density, retinal and choroidal layers in 3D structure OCT scans were separated by the hyper-reflecting retinal pigment epithelium (RPE). Then the en face maximum intensity projection was generated. The vessel density was then determined by calculating the percentages of vessel-covered area in total area of view using the ImageJ software.

BAE cells = assay: Annexin V staining for cell death; assay type: cell-based, bovine; details: BAE cells treated with LIF (10 ng/ml) for 24 hours
Protocol: BAE cells were plated at a density of 2×10^4 cells/well with 1 ml of culture medium (DMEM-low glucose plus 10% BCS) in 12-well plates and then incubated at 37° C. overnight. After removal of culture medium, cells were incubated in 0.5 ml of DMEM-low glucose plus 1% BCS. LIF (10 ng/ml) and vehicle control (0.1% BSA in PBS) were added to the cells. Following LIF treatment for 24 hours, cells were examined for cell death marker Annexin V using Annexin V-Cy5 Apoptosis Staining Detection Kit (Abcam, CAT #ab14150) according to manufacturer's instructions. Briefly, cell culture medium was removed and 0.5 ml of Annexin V binding solution was laid over onto the cells. Cells were incubated at room temperature for 5 min following addition of 5 μl of Annexin V-Cy5. Then, the staining solution was discarded and replaced with 0.5 ml of Annexin V binding solution. Imaging of Annexin V staining were performed using Keyence Microscope BZ-X710 (Keyence Corporation, Osaka, Japan). Four random fields were selected and the percentages of Annexin V-staining area in total cell-covered area as indicatives for cell death were determined using ImageJ software. The experiment was carried out in triplicate and repeated three time.

For “LIF: recombinant human leukemia inhibitory factor, a member of the IL-6 family of cytokines”, the “effect on VEGF-stimulated growth of human retinal microvascular endothelial cells” value ([1]; LIF added to VEGF) was “significantly enhanced VEGF-stimulated growth”, the “mitogenic response in human retinal microvascular endothelial cells” value ([1]; LIF alone) was “did not elicit a strong mitogenic response” and the “retinal vascular density in neonatal mice (lectin)” value ([2]; 5-day postnatal (P5) mice, intravitreal LIF 50 ng, three days after the injection) was “significant increase in vascular density”. For the same substance, the “retinal microvessel density (CD31)” value ([2]; 10 ng per eye, 7 days) was “significantly increased”, the “retinal microvessel density (CD31)” value ([2]; 100 ng, 7 days) was “less effective” and the “vessel density in retina, CD31 immunofluorescence in cross sections of mouse eyes” value ([2]; adult mice, intravitreal LIF 10 ng, 7 days) was “increased vessel density”. The “retinal vessel density by OCTA” value ([2]; adult mice, intravitreal LIF 50 ng, 7 days) was “significant increases” and the “Annexin V positive cells (cell death marker)” value (BAE cells) was “increased proportion of cells were Annexin V positive”.
